The values below come from patent US20040077687A1, “Thiazolmines and their use as tgf-beta inhibitors” (priority 2003, published 2004).

For data set [1], the system named is TGF-β signalling (PAI-1 promoter luciferase reporter in HepG2 cells). Nature of the data set: Assay 1: PAI-1 promoter firefly luciferase reporter in HepG2 cells exposed to TGF-β. To be noted: for IC50: Homo sapiens, HepG2, read-out: IC50 value in Assay 1. For orientation: Reporter assays use an easily measured gene product as a stand-in for the process of interest.
Protocol: The assay was performed in HepG2 cells stably transfected with the PAI-1 promoter (known to be a strong TGF-β responsive promoter) linked to a luciferase (firefly) reporter gene. The compounds were selected on their ability to inhibit luciferase activity in cells exposed to TGF-β. In addition cells were transfected with a second luciferase (Renilla) gene which was not driven by a TGF-β responsive promoter and was used as a toxicity control.
(96 well-)microplates are seeded, using a multidrop apparatus, with the stably transfected cell line at a concentration of 35000 cells per well in 200 μl of serum-containing medium. These plates are placed in a cell incubator.
18 to 24 hours later (Day 2), cell-incubation procedure is launched. Cells are incubated with TGF-β and a candidate compound (TGF-β inhibitor) at concentrations in the range 50 nM to 10 μM (final concentration of DMSO 1%). The final concentration of TGF-β (rhTGFβ1) used in the test is 1 ng/mL. […] The final volume of the test reaction is 150 μl. Each well contains only one candidate compound and its effect on the PAI-1 promoter is monitored.
Columns 11 and 12 are employed as controls. Column 11 contains 8 wells in which the cells are incubated in the presence of TGF-β, without a candidate compound. Column 11 is used to determine the ‘reference TGF-β induced firefly luciferase value’ against which values measured in the test wells (to quantify inhibitory activity) may be compared. In wells A12 to D12, cells are grown in medium without TGF-β. The firefly luciferase values obtained from these positions are representive of the ‘basal firefly luciferase activity’. In wells E12 to H12, cells are incubated in the presence of TGF-β and 500 μM CPO (Cyclopentenone, Sigma), a cell toxic compound.
12 to 18 hours later (day 3), the luciferase quantification procedure is launched. The following reactions are performed using reagents obtained from a Dual Luciferase Assay Kit (Promega). Cells are washed and lysed with the addition of 10 μl of passive lysis buffer (Promega). Following agitation (15 to 30 mins), luciferase activities of the plates are read in a dual-injector luminometer (BMG lumistar). For this purpose, 50 μl of luciferase assay reagent and 50 μl of ‘Stop & Glo’ buffer are injected sequentially to quantify the activities of both luciferases. The mean Luciferase activity value obtained in wells A11 to H11 (Column 11, TGF-βonly) is considered to represent 100% and values obtained in wells A12 to D12 (cells in medium alone) give a basal level (0%). For each of the compounds tested, a concentration response curve is constructed from which an IC50 value can be determined graphically.

Regarding `O=C1C=CCC1` [CPO, Cyclopentenone, reference compound], the “firefly and renilla luciferase activities relative to column 11 (TGF-β only); toxicity control” value in data set [1] (500 μM CPO in the presence of TGF-β, HepG2 reporter cells) is reported as “around 50%”.
In the case of `Nc1nc(-c2ccccn2)c(-c2ccnc(-c3ccc(Cl)cc3)c2)s1` [Example 1, 5-[2-(4-Chlorophenyl)pyridin-4-yl]-4-pyridin-2-yl-1,3-thiazol-2-amine], the melting point – broadly, the temperature of the solid-liquid transition – fell in the range of 256 to 257 °C. In addition, the IC50 (as a rule, the midpoint of a concentration-inhibition curve) in data set [1] is at most 5 µM.
As for `COc1ccc(-c2cc(-c3sc(N)nc3-c3ccccn3)ccn2)cc1` [Example 2, 5-[2-(4-Methoxyphenyl)pyridin-4-yl]-4-pyridin-2-yl-1,3-thiazol-2-amine], the melting point amounted to 222 °C. Moreover, in data set [1], the half-maximal inhibitory concentration (IC50) was at most 5 µM.
The molecule `Nc1nc(-c2ccccn2)c(-c2ccnc(-c3ccc(F)cc3)c2)s1` [Example 3, 5-[2-(4-Fluorophenyl)pyridin-4-yl]-4-pyridin-2-yl-1,3-thiazol-2-amine] yielded a melting point of 250 °C. Besides, the 50% inhibitory concentration (IC50) in data set [1] is at most 5 µM.
Regarding `CCc1ccc(-c2cc(-c3sc(N)nc3-c3ccccn3)ccn2)cc1` [Example 4, 5-[2-(4-Ethylphenyl)pyridin-4-yl]-4-pyridin-2-yl-1,3-thiazol-2-amine], the melting point turned out to be 238 °C. In addition, in data set [1], the IC50 is at most 5 µM.
`CCOc1ccc(-c2cc(-c3sc(N)nc3-c3ccccn3)ccn2)cc1` [Example 5, 5-[2-(4-Ethoxyphenyl)pyridin-4-yl]-4-pyridin-2-yl-1,3-thiazol-2-amine] yielded a melting point of 246 °C. Further, in data set [1], the half-maximal inhibitory concentration (IC50) was at most 5 µM.
In turn, `Nc1nc(-c2ccccn2)c(-c2ccnc(-c3ccsc3)c2)s1` [Example 6, 5-[2-(Thiophen-3-yl)pyridin-4-yl]-4-pyridin-2-yl-1,3-thiazol-2-amine] had a melting point of 244 °C. The IC50 in data set [1] was at most 5 µM.
